In ChEMBL document CHEMBL6096675 (J Med Chem, 2025):

Legend:
[1] = Half life in rat at 1 mg/kg, iv; assay type: ADME, organism-based; conditions: in vivo
[2] = Plasma stability in human plasma assessed as half life; assay type: ADME, cell-free
[3] = Clearance in rat at 1 mg/kg, iv; assay type: ADME, organism-based; conditions: in vivo
[4] = Toxicity in SCID mouse xenografted with human H838 cells assessed as toxicity signs at 30 mg/kg, iv measured after 3 weeks; assay type: organism-based; conditions: in vivo, 504 h
[5] = Plasma concentration in SCID mouse xenografted with human NCI-H838 cells at 10 mg/kg, iv measured after 168 hrs by LC-MS/MS analysis; assay type: ADME, organism-based; conditions: in vivo, iv, 10 mg/kg, 168 h

Cc1ncsc1-c1ccc([C@H](CN2CCOCC2)NC(=O)[C@@H]2C[C@@H](O)CN2C(=O)[C@@H](n2cc([C@H]3CC[C@H](CN4CCC(c5ccc6c(c5)-n5c(nc(=O)c7c(Cl)cccc75)C65CCCCC5)CC4)CC3)nn2)C(C)(C)C)cc1
half-life [1]: 6.3 h | half-life [2]: > 2 h | clearance [3]: 22 mL/min/kg | Activity [4]: Non-toxic | Cp [5]: Below_limit_of_detection
